Results reported in PubChem BioAssay (NCI).
Where “and” joins values, the source holds several entries; their conditions need not be identical. Identical values can stand only once.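 Assay format: 96-well plates, 48-hour exposure. At the GI50, growth is halved. TGI is the concentration that stops growth completely.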

Assays:
Test in all cases: growth of human tumour cells (NCI), 48 h
SN12C renal = system: SN12C renal
ACHN renal = system: ACHN renal
HS 578T breast = system: HS 578T breast
HL-60(TB) leukemia = system: HL-60(TB) leukemia
SNB-19 CNS = system: SNB-19 CNS
SK-MEL-5 melanoma = system: SK-MEL-5 melanoma
CAKI-1 renal = system: CAKI-1 renal
SK-OV-3 ovarian = system: SK-OV-3 ovarian
MOLT-4 leukemia = system: MOLT-4 leukemia
T-47D breast = system: T-47D breast

Row | Compound | GI50 (SN12C renal) | TGI (SN12C renal) | GI50 (ACHN renal) | TGI (ACHN renal) | GI50 (HS 578T breast) | TGI (HS 578T breast) | GI50 (HL-60(TB) leukemia) | TGI (HL-60(TB) leukemia) | GI50 (SNB-19 CNS) | TGI (SNB-19 CNS) | GI50 (SK-MEL-5 melanoma) | TGI (SK-MEL-5 melanoma) | GI50 (CAKI-1 renal) | TGI (CAKI-1 renal) | GI50 (SK-OV-3 ovarian) | TGI (SK-OV-3 ovarian) | GI50 (MOLT-4 leukemia) | TGI (MOLT-4 leukemia) | GI50 (T-47D breast) | TGI (T-47D breast)
1 | CNC(=O)c1ccc(Nc2ncc(C(F)(F)F)c(NCc3nccnc3N(C)S(C)(=O)=O)n2)cc1 | 3.46 µM and 3.4 µM and 3.41 µM | > 10 µM and 11.8 µM and 14.7 µM | 1.67 µM and 1.77 µM and 1.5 µM | > 10 µM and 9.44 µM and 8.18 µM | 0.283 µM and 2.44 µM and 1.5 µM | 7.19 µM and 9.3 µM and 8.29 µM | 2.02 µM and 2.19 µM and 2.49 µM | 8.1 µM and 6.09 µM and 7.7 µM | 3.21 µM and 3.17 µM and 3.31 µM | > 10 µM and 13.3 µM and 14.7 µM | 1.85 µM and 2.1 µM and 2.09 µM | 4.59 µM and 4.55 µM and 5.49 µM | 1.8 µM and 1.41 µM and 1.88 µM | > 10 µM and 8.35 µM and 12.1 µM | 3.16 µM and 2.27 µM and 2.41 µM | > 10 µM and 9.35 µM and 11.4 µM | 3.25 µM and 2.64 µM and 3.09 µM | 9.97 µM and 8.58 µM and 8.76 µM | 3.47 µM and 3.46 µM and 2.9 µM | > 10 µM and 12.5 µM and 10.4 µM
2 | COc1ccc(C(=O)/C=C/c2cc3ccccc3[nH]c2=O)cc1 | 21.1 µM | > 100 µM | 22.9 µM | > 55.1 µM | 20.8 µM | > 100 µM | 21.9 µM | > 100 µM | 23.2 µM | > 57.5 µM | 25 µM | > 56.6 µM | 14.9 µM | 28.2 µM | 22.7 µM | > 91.6 µM | 22.2 µM | > 100 µM | 18.8 µM | > 100 µM
3 | CC[C@H](C)c1occ2c(O)c(C(=O)O)c(=O)cc-2c1C | – | 81.4 µM | – | 65.4 µM | – | > 100 µM | – | 41.7 µM | – | > 100 µM | – | 38.1 µM | – | > 100 µM | – | 63.7 µM | – | 54.3 µM | – | 56.4 µM
4 | CCCCCCN(CCCCCC)C(=N)c1ccnc2ccccc12 | 7 µM | 21.6 µM | 4.23 µM | 16.3 µM | 12 µM | 47.1 µM | 2.93 µM | 16.8 µM | 11 µM | 25.7 µM | 1.96 µM | 3.45 µM | 3.18 µM | 15 µM | 12.3 µM | 24.7 µM | 3.11 µM | 17.2 µM | 3.04 µM | 13.2 µM
5 | COc1ccc(C(=S)c2cc(OC)c(OC)c(OC)c2)cc1OC(=O)CCl | 0.0241 µM | > 100 µM | 0.0214 µM | 61.5 µM | 0.023 µM | > 100 µM | < 0.0129 µM | < 0.0218 µM | < 0.0207 µM | > 100 µM | 0.0141 µM | 0.0616 µM | 0.0449 µM | 52.1 µM | 0.0684 µM | > 100 µM | < 0.0186 µM | > 100 µM | 22.1 µM | 79.9 µM
6 | Cc1cc(NC(=O)c2ccc(NS(=O)(=O)CCO)cc2N2CCC3(CC2)CC3)nc(N2CCC(F)(F)CC2)n1 | 11.7 µM | 24.4 µM | 13.5 µM | 26.4 µM | 0.746 µM | 21.9 µM | 19.4 µM | > 57.1 µM | 2.03 µM | 21.6 µM | 2.7 µM | 19.7 µM | 10.9 µM | 23.2 µM | 11.1 µM | 26 µM | 12.1 µM | 33.1 µM | 12.5 µM | 31.8 µM
7 | Cc1cc(Cl)ccc1Nc1sc(C(=O)c2cc3cc(Cl)ccc3o2)c(N)c1C#N | – | > 100 µM | – | 98.1 µM | – | > 100 µM | – | > 100 µM | – | 25.1 µM | – | > 100 µM | – | > 100 µM | – | 57 µM | – | > 100 µM | – | > 100 µM
8 | [N-]=[N+]=NC1(N=[N+]=[N-])C(=O)NN=C(c2ccccc2)C1=O (stereo not drawn) | – | > 100 µM | – | > 100 µM | – | > 100 µM | – | > 100 µM | – | – | – | – | – | – | – | > 100 µM | – | 73.6 µM | – | 94.3 µM
9 | C#C[C@@]1(O)[C@@H](CO)O[C@@H](n2cc(Cl)c3c(N)ncnc32)[C@@H]1O | – | – | – | – | 1.07 µM | > 26.5 µM | 0.0341 µM | 0.197 µM | 0.021 µM | 0.294 µM | – | – | – | – | 0.143 µM | 0.517 µM | 0.17 µM | > 26.4 µM | 0.0573 µM | 0.489 µM
10 | CCN(Cc1ccc(F)cc1)c1ccc(CO)c(Cl)c1 | 12.1 µM | 33.4 µM | 10.2 µM | > 48.6 µM | 17.8 µM | > 66.2 µM | 3.63 µM | 23.3 µM | 19.6 µM | > 59.8 µM | 1.86 µM | 15.2 µM | 0.487 µM | 8.79 µM | 3.86 µM | 25.2 µM | 15.1 µM | 42.6 µM | 0.0821 µM | 0.472 µM
11 | O=S(=O)(/C=C/C=C/S(=O)(=O)c1ccccc1)c1ccccc1 | – | 4.16 µM | – | 2.06 µM and 2.05 µM | 2.93 µM | 8.24 µM and 8.07 µM | 0.188 µM | 2.04 µM and 0.518 µM | – | 31.2 µM | 1.49 µM | 2.68 µM and 2.98 µM | 1.04 µM | 2.54 µM and 2.25 µM | – | 19.9 µM | – | 1.85 µM | – | 2.69 µM
12 | COc1ccc(NC(=O)C(=O)C(CC2C(=O)NC(=S)NC2=O)C(=O)c2ccc3ccccc3c2)c([N+](=O)[O-])c1 (stereo not drawn) | – | > 100 µM | – | > 100 µM | – | > 100 µM | – | > 100 µM | – | > 100 µM | – | > 100 µM | – | > 100 µM | – | > 100 µM | – | > 100 µM | – | > 100 µM
13 | N=c1ccn2c(n1)OC1C(OP(=O)(O)O)C(CO)OC12 (stereo not drawn) | – | > 100 µM | – | 14 µM | – | > 100 µM | – | 13.6 µM | – | > 100 µM | – | > 100 µM | – | > 100 µM | – | > 100 µM | – | > 63.3 µM | – | > 100 µM
14 | CCC1CCc2nc3sc(C(=O)Nc4ccccc4F)c(N)c3cc2C1 (stereo not drawn) | > 100 µM | > 100 µM | > 100 µM | > 100 µM | 2.13 µM | > 100 µM | 0.302 µM | 0.978 µM | 53.8 µM | > 100 µM | 0.656 µM | > 100 µM | 0.768 µM | > 100 µM | > 100 µM | > 100 µM | 0.471 µM | > 100 µM | > 100 µM | > 100 µM
15 | CCOC(=O)[C@H](CSSc1ncnc2cc[nH]c12)NC(=O)[C@@H](C)c1ccc2cc(OC)ccc2c1 | 3.98 µM | > 100 µM | 2.1 µM | > 100 µM | 7.92 µM | > 100 µM | 1.04 µM | > 100 µM | 44.4 µM | > 100 µM | 2.25 µM | > 32.5 µM | 0.378 µM | > 100 µM | 2.77 µM | > 100 µM | 0.388 µM | > 100 µM | 0.0375 µM | > 100 µM
